Experimental data reported in patent US5760040A, “Indole derivative for treating overproduction of dihydrotestosterone” (Zeria Pharmaceutical Co., Ltd., priority 1994, dated 1998).
“And” between values parts separate entries of the source, which are not always exact repeats. Equal entries are not always repeated. Where two headings read alike, the source gives them in different places.

Legend:
α1 -Adrenoceptor = target: T1, α1 -Adrenoceptor (Oryctolagus cuniculus, UniProt O02824); experiment: α1-Adrenoceptor blocking action (antagonism of phenylephrine-induced contraction of isolated urethra and prostate strips); assay type: cell-based, rabbit (male albino)
T1 construct: smooth muscle strips were prepared from prostate and proximal urethra; from tissue; host or cells: rabbit prostate and proximal urethra smooth muscle strips
T1 sequence (O02824 1-466): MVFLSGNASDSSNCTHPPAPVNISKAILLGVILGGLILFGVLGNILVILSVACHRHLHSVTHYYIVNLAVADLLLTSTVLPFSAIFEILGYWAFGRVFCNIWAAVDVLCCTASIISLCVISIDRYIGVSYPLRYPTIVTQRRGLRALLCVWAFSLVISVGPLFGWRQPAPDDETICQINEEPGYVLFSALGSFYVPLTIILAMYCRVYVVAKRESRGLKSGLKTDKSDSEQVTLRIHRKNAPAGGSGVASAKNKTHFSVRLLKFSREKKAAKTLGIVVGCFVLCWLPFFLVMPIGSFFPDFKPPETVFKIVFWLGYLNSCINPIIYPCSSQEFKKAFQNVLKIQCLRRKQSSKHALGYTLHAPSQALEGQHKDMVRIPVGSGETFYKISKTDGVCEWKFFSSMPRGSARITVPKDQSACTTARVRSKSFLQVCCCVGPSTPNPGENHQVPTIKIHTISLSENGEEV
Procedure: α1 -Adrenoceptor Blocking Action
Male albino rabbits were sacrificed by exsanguination, and the prostate and urethra were isolated. After removal of fat and connective tissues, tranverse smooth muscle strips were prepared from prostate and proximal urethra. Each segmental strip was suspended in an organ bath at 37° C. in a Krebs-Henseleit solution which had been bubbled with 95% O2 and 5% CO2. The isometric contraction under a resting tension of 1 g was recorded with a force-displacement transducer(TB-651T, Nihon Koden) on a recoder(RECTI HORIZ 8K, Nihon Sanei).
After an equilibration of tissues at least 60 minutes, contractions were elicited by repeated dose of phenylephrine until constant contraction responses were obtained. Subsequently, the dose-response curves were obtained by increasing concentrations of phenylephrine(10^-7 -×10^-4 M). After the resting period for 60 minutes, tissues were incubated with test drugs for 30 minutes and dose-response curves were constructed as described above.
In all cases, 10^-5 M propranolol(β-adrenoceptor antagonist) was administered 10 minutes before the contraction by phenylephrine.
The composition of the Krebs-Henseleit solution was as follows(mM): NaCl 118.4, KCl 4.7, MgSO4 1.2, CaCl2 2.5, NaHCO3 25.0, glucose 11.1, KH2 PO4 1.2.
The potency of each test drug was expressed as the pA2 value(negative logarithm of the antagonist dissociation constant).

[1] = target: Testosterone 5α-reductase; experiment: Testosterone 5α-reductase inhibitory action (nuclear fraction of ventral prostate); assay type: biochemical, rat (male Wistar); details: rat ventral prostate nuclear fraction; [4-^14 C]-testosterone, NADPH; 60 min at 37° C
Procedure: Testosterone 5α-Reductase Inhibitory Action
Male Wistar rats (age: 9-10 weeks old) were anesthetized with ethyl ether and ventral prostates were dissected. The isolated prostates were weighed and homogenized with ultradisperser(Yamato, Japan) and teflon-glass homogenizer in 3 tissue volumes of 50 mM Tris-HCl buffer(pH 7.2) containing 0.25M sucrose and 1 mM dithiothreitol. The homogenates were filtered with gauze and centrifuged at 3,000 rpm for 10 minutes at 4° C. The pellets were resuspended in same buffer as described above and the resultant suspension was used as the nuclear fraction.
Testosterone 5α-reductase activity was carried out described as follows. The reaction mixture contained […] of nuclear fraction 0.1 ml of 5 mM NADPH, 0.01 ml of test drug dissolved in dimethylsulfoxide and 0.78ml of Tris-HCl buffer(pH 7.0). The reaction was started by addition of 0.01 ml of 150 μM [4-^14 C]-testosterone and incubated for 60 minutes at 37° C. After incubation, reaction was stopped by adding 4 ml of ethyl acetate. 3 ml of ethyl acetate was evaporated under nitrogen to dryness and dissolved in 40 μl of ethyl acetate. 10 μl of ethyl acetate was applied to silica gel thin layer plate(HF254, Merck) and the plate was developed in ethyl acetate and cyclohexane(1:1). The plate was subjected to autoradiography and the radioactivity profiles were determined by scraping the spots of testosterone, dihydrotestosterone and other metabolites and counting in a scintillation counter. Testosterone 5a -reductase activity was calculated for the total radioactivity and radioactivities of dihydrotestosterone and other metabolites. The inhibitory activity of test drug was expressed as IC50 (nM).

[2] = isolated rabbit prostate strips, phenylephrine contraction, 30 min incubation with drug, 10^-5 M propranolol, pA2 = negative logarithm of antagonist dissociation constant, read-out: Prostate (pA2) (converted)
[3] = isolated rabbit proximal urethra strips, phenylephrine contraction, 30 min incubation with drug, 10^-5 M propranolol, pA2 = negative logarithm of antagonist dissociation constant, read-out: Urethra (pA2) (converted)

Q: With `COc1cc(C(=O)c2cn(CCCC(=O)O)c3ccccc23)ccc1OC(CCN1CCN(c2ccccc2OC)CC1)c1ccc(C)cc1` (stereo not drawn) [Example 1, Potassium 4-{3-{3-methoxy-4-{1-(4-methylphenyl)-3-[4-(2-methoxyphenyl)piperazin-1-yl]propoxy}benzoyl}indol-1-yl} butanoate] as the molecule, how does the Kb (α1 -Adrenoceptor; [2]) read?
A: 87.1 nM

Q: What about the Kb (α1 -Adrenoceptor; [3]) of the same molecule?
A: 380 nM

Q: And the IC50 [1]?
A: 3.7 nM

Q: How did the Kb (α1 -Adrenoceptor) turn out when `COc1ccccc1N1CCN(CCCOc2ccc(C(=O)c3cn(CCCC(=O)O)c4ccccc34)cc2)CC1` [Example 3, Potassium 4-{3-{4-{3-[4-(2-methoxyphenyl)piperazin-1-yl]propoxy}benzoyl}indol-1-yl}butanoate] was run?
A: 115 nM and 75.9 nM

Q: How did the Kb (α1 -Adrenoceptor) turn out when `CC(C)Oc1ccccc1N1CCN(CCC(Oc2ccc(C(=O)c3cn(CCCC(=O)O)c4ccccc34)cc2)c2ccccc2)CC1` (stereo not drawn) [Example 5, 4-{3-{4-{1-Phenyl-3-[4-(2-isopropoxyphenyl)piperazin-1-yl]propoxy}benzoyl}indol-1-yl}butanoic acid] was run?
A: 1100 nM and 141 nM

Q: Which IC50 [1] does the source give for `Cc1ccc(C(CCN2CCN(c3ccccc3OC(C)C)CC2)Oc2ccc(C(=O)c3cn(CCCC(=O)O)c4ccccc34)cc2)cc1` (stereo not drawn) [Example 8, Potassium 4-{3-{4-{1-(4-methylphenyl)-3-[4-(2-isopropoxyphenyl)piperazin-1-yl]propoxy}benzoyl}indol-1-yl}butanoate] here?
A: 0.26 nM

Q: How did the IC50 [1] turn out when `COc1cc(C(=O)c2cn(CCCC(=O)O)c3ccccc23)ccc1OC(CCN1CCN(c2ccccc2OC(C)C)CC1)c1ccc(C)cc1` (stereo not drawn) [Example 11, Potassium 4-{3-{3-methoxy-4-{1-(4-methylphenyl)-3-[4-(2-isopropoxyphenyl)piperazin-1-yl]propoxy}benzoyl}indol-1-yl}butanoate] was run?
A: 3.1 nM

Q: How did the IC50 [1] turn out when `COc1cc(C(=O)c2cn(CCCC(=O)O)c3ccccc23)ccc1OC(CCN1CCN(c2ccccc2OC)CC1)c1ccc(CC(C)C)cc1` (stereo not drawn) [Example 13, Potassium 4-{3-{3-methoxy-4-{1-(4-isobutylphenyl)-3-[4-(2-methoxyphenyl)piperazin-1-yl]propoxy}benzoyl}indol-1-yl}butanoate] was run?
A: 1.4 nM

Q: How did the Kb (α1 -Adrenoceptor) turn out when `COc1cc(C(=O)c2cn(CCCC(=O)O)c3ccccc23)ccc1OC(CCN1CCN(c2ccccc2OC)CC1)c1ccccc1` (stereo not drawn) [Example 14, Potassium 4-{3-{3-methoxy-4-{1-phenyl-3-[4-(2-methoxyphenyl)piperazin-1-yl]propoxy}benzoyl}indol-1-yl}butanoate] was run?
A: 389 nM and 72.4 nM

Q: Which results are given for `CCOc1ccccc1N1CCN(CCC(Oc2ccc(C(=O)c3cn(CCCC(=O)O)c4ccccc34)cc2OC)c2ccccc2)CC1` (stereo not drawn) [Example 15, Potassium 4-{3-{3-methoxy-4-{1-phenyl-3-[4-(2-ethoxyphenyl)piperazin-1-yl]propoxy}benzoyl}indol-1-yl}butanoate]?
A: Kb (α1 -Adrenoceptor): 251 nM and 50.1 nM; IC50 [1]: 7.9 nM

Q: With `COc1cc(C(=O)c2cn(CCCC(=O)O)c3ccccc23)ccc1OC(CCN1CCN(c2ccccc2OC(C)C)CC1)c1ccccc1` (stereo not drawn) [Example 16, Potassium 4-{3-{3-methoxy-4-{1-phenyl-3-[4-(2-isopropoxyphenyl)piperazin-1-yl]propoxy}benzoyl}indol-1-yl}butanoate] as the molecule, how does the Kb (α1 -Adrenoceptor) read?
A: 155 nM and 85.1 nM

Q: With `COc1ccc(C(CCN2CCN(c3ccccc3OC)CC2)Oc2ccc(C(=O)c3cn(CCCC(=O)O)c4ccccc34)cc2)cc1` (stereo not drawn) [Example 20, Potassium 4-{3-{4-{1-(4-methoxyphenyl)-3-[4-(2-methoxyphenyl)piperazin-1-yl]propoxy}benzoyl}indol-1-yl}butanoate] as the molecule, how does the Kb (α1 -Adrenoceptor) read?
A: 692 nM and 562 nM

Q: How did the IC50 [1] turn out when `COc1ccccc1N1CCN(CCC(Oc2ccc(C(=O)c3cn(CCCC(=O)O)c4ccccc34)c(C)c2C)c2ccc(C)cc2)CC1` (stereo not drawn) [Example 22, 4-{3-{2,3-Dimethyl-4-{1-(4-methylphenyl)-3-[4-(2-methoxyphenyl)piperazin-1-yl]propoxy}benzoyl}indol-1-yl}butanoic acid] was run?
A: 3.7 nM

Q: For `COc1ccccc1N1CCN(CCCOc2ccc(C(=O)c3cn(CCCC(=O)O)c4ccccc34)cc2OCc2ccccc2)CC1` [Example 24, 4-{3-{3-Benzyloxy-4-{3-[4-(2-methoxyphenyl)piperazin-1-yl]propoxy}benzoyl}indol-1-yl}butanoic acid], which Kb (α1 -Adrenoceptor) is on record?
A: 631 nM and 100 nM

Q: How did the IC50 [1] turn out when `COc1ccccc1N1CCN(CCC(Oc2ccc(C(=O)c3cn(CCCC(=O)O)c4ccccc34)cc2OCc2ccccc2)c2ccc(C)cc2)CC1` (stereo not drawn) [Example 26, 4-{3-{3-Benzyloxy-4-{1-(4-methylphenyl)-3-[4-(2-methoxyphenyl)piperazin-1-yl]propoxy}benzoyl}indol-1-yl}butanoic acid] was run?
A: 5 nM

Q: How did the Kb (α1 -Adrenoceptor) turn out when `COc1ccccc1N1CCN(CCC(Oc2cccc(C(=O)c3cn(CCCC(=O)O)c4ccccc34)c2)c2ccc(C)cc2)CC1` (stereo not drawn) [Example 28, Potassium 4-{3-{3-{1-(4-methylphenyl)-3-[4-(2-methoxyphenyl)piperazin-1-yl]propoxy}benzoyl}indol-1-yl}butanoate] was run?
A: 166 nM and 102 nM

Q: What does the source list for `COc1cc(C(=O)c2cn(CCCC(=O)O)c3ccccc23)ccc1O[C@@H](CCN1CCN(c2ccccc2OC)CC1)c1ccccc1` [Example 35, Potassium S-4-{3-{3-methoxy-4-{1-phenyl-3-[4-(2-methoxyphenyl)piperazin-1-yl]propoxy}benzoyl}indol-1-yl}butanoate]?
A: Kb (α1 -Adrenoceptor; [2]): 27.5 nM; Kb (α1 -Adrenoceptor; [3]): 64.6 nM; IC50 [1]: 6.8 nM

Q: Which Kb (α1 -Adrenoceptor) does the source give for `COc1ccccc1N1CCN(CCCOc2cc(C(=O)c3cn(CCCC(=O)O)c4ccccc34)ccc2OCc2ccc(C)cc2)CC1` [Example 37, Potassium 4-{3-{4-(4-methylphenylmethoxy)-3-{3-[4-(2-methoxyphenyl)piperazin-1-yl]propoxy}benzoyl}indol-1-yl}butanoate] here?
A: 120 nM and 19.1 nM

Q: What about the IC50 [1] of the same molecule?
A: 3.5 nM

Q: How did the Kb (α1 -Adrenoceptor) turn out when `COc1ccccc1N1CCN(CCCOc2cc(C(=O)c3cn(CCCC(=O)O)c4ccccc34)ccc2OCc2ccccc2)CC1` [Example 38, Potassium 4-{3-{4-benzyloxy-3-{3-[4-(2-methoxyphenyl)piperazin-1-yl]propoxy}benzoyl}indol-1-yl}butanoate] was run?
A: 36.3 nM and 16.6 nM

Q: Which Kb (α1 -Adrenoceptor) does the source give for `COc1ccccc1N1CCN(CCCOc2cc(C(=O)c3cn(CCCC(=O)O)c4ccccc34)ccc2OCc2ccc(F)cc2)CC1` [Example 42, Potassium 4-{3-{4-(4-fluorophenylmethoxy)-3-{3-[4-(2-methoxyphenyl)piperazin-1-yl]propoxy}benzoyl}indol-1-yl}butanoate] here?
A: 398 nM and 70.8 nM

Q: For `CCOc1ccccc1N1CCN(CCCOc2cc(C(=O)c3cn(CCCC(=O)O)c4ccccc34)ccc2OCc2ccc(C)cc2)CC1` [Example 45, Potassium 4-{3-{4-(4-methylphenylmethoxy)-3-{3-[4-(2-ethoxyphenyl)piperazin-1-yl]propoxy}benzoyl}indol-1-yl}butanoate], which Kb (α1 -Adrenoceptor) is on record?
A: 56.2 nM and 34.7 nM

Q: And the IC50 [1]?
A: 1.5 nM

Q: With `COc1ccccc1N1CCN(CCCCOc2cc(C(=O)c3cn(CCCC(=O)O)c4ccccc34)ccc2OCc2ccc(C)cc2)CC1` [Example 46, Potassium 4-{3-{3-{4-[4-(2-methoxyphenyl)piperazin-1-yl]butoxy}-4-(4-methylphenylmethoxy)benzoyl}indol-1-yl}butanoate] as the molecule, how does the IC50 [1] read?
A: 1.5 nM
